Test results: the NIST ThermoML archive (doi:10.1021/je500458e)

Assay: mn = molality of the nth substance listed, in mol/kg
Conditions: 298.15 K, Liquid

Nc1nc(O)c2ncn([C@H]3C[C@H](O)[C@@H](CO)O3)c2n1 [2'-deoxyguanosine] + O
speed of sound [m/s]
Conditions	100 kPa	10000 kPa	20000 kPa	40000 kPa	60000 kPa	80000 kPa	100000 kPa
m1 = 0.009827	1497.4	–	–	–	–	–	–
m1 = 0.01011	1497.4	–	–	–	–	–	–
m1 = 0.01028	1497.4	–	–	–	–	–	–
m1 = 0.0103	1497.4	1514	1530.8	1564.4	1597.9	1631.3	1664.4
m1 = 0.01036	–	–	1530.8	1564.4	1597.9	1631.3	1664.4
m1 = 0.01043	–	1514	1530.8	1564.4	1597.9	1631.3	1664.4
m1 = 0.01048	1497.4	1514	1530.8	1564.4	1597.9	1631.3	1664.4
m1 = 0.01051	1497.4	–	–	–	–	–	–
m1 = 0.01057	1497.4	–	–	–	–	–	–
m1 = 0.01059	–	1514.1	1530.9	–	1597.9	1631.3	1664.5
m1 = 0.01062	–	1514.1	1530.9	1564.4	1597.9	1631.3	1664.5
m1 = 0.01068	–	1514.1	1530.9	–	1597.9	1631.3	1664.5
m1 = 0.0107	1497.5	–	–	–	–	–	–
m1 = 0.01075	–	1514.1	1530.9	1564.4	1597.9	1631.3	1664.5
